Measurements from US20080021002A1, “VITAMIN D COMPOUNDS USED TO STABILIZE KIDNEY TRANSPLANTS” (priority 2000, published 2008).

Columns and labels:
[1] = Effect of calcitriol on CsA and FK506 serum levels and dosages in transplant patients; assay type: in vivo, human
From the text: Methodology-retrospective analysis: The University of Wisconsin transplant database was screened to identify any kidney and/or kidney-pancreas transplant recipient who received 1,25-dihydroxyvitamin D3 (calcitriol)peri-post-transplant. Clinical and demographic variables were abstracted from the database. Those patients with adequate follow-up data were included in the analysis (≧1year follow-up data following the initiation of calcitriol). Demographic variables included race, age, and nay history of parathyroidectomy as these patients would likely be receiving calcitriol at time of transplantation. The effect of calcitriol treatment on renal function was analyzed using general linear mixed modeling of the change in slope of renal function prior to and following the start of calcitriol therapy. […] Adverse events and hypercalcemia were noted by identifiers in the database and by serum calcium levels as recorded in the database. Hypercalcemia was defined as a serum calcium >10.5 mg/dl. […] Both of these agents have beneficial effects in prolonging allograft function by altering the ability for activated T cells to produce interleukin-2 (IL-2). However, both of these agents are also associated with drug-related nephrotoxicity that is manifested by characteristic histologic changes in the allograft, e.g. tubulointerstitial fibrosis, and loss of allograft function long-term.

Smad 6 mRNA = assay: Semi-quantitative RT-PCR of renal grafts, Smad 6 mRNA; assay type: in vivo, rat
From the text: FIG. 3 is a bar graph disclosing that 1,25-(OH)2D3 treated increases Smad 6 mRNA expression. Semi-quantitative RT-PCR was used to determine Smad mRNA express. PCR products were quantified on a phosphoimager and the level of Smad expression compared to that of a ribosomal housekeeping gene, S26. Results are expressed as the ratio to S26.
(§1) Semi-quantitative Reverse transcription polymerace chain reaction (RT-PCR): Following graft harvest a […] containing both cortex and medulla was snap frozen in liquid nitrogen. Semi-quantitative RT-PCR was performed as described. Little et al. Transplant Int. 12:393-401, 1999. Briefly, samples were homogenized then total RNA extracted with RNAzol B (Tel Test, Inc., Friendswood, Tex.) and reversed transcribed to cDNA according to manufacturer=s instructions (Superscript, Gibco BRL). PCR was performed over the linear range of amplification for both the gene of interest, e.g. TGFβ-1, and the ribosomal protein S26 as a control housekeeping gene. PCR conditions were chosen such that both products were amplified with similar efficiency. The following cycle parameters were employed: denaturing, 94° C. for 60 seconds; annealing, 61° C. for 60 seconds; and extension, 72° C. for 60 seconds. The amount of product was quantified using a phosphoimager (Storm 80) following gel electrophoresis and Vista green detection.

Smad 3 protein = assay: Western blot of renal graft lysates, Smad 3 protein; assay type: in vivo, rat; details: allogeneic recipients regardless of treatment, vs syngeneic controls (data not shown)
From the text: (§2) Renal lysates were subjected to SDS-PAGE and transferred to nitrocellulose membranes. The membranes were probed with specific anti-Smad antibodies and appropriated HRP-conjugated secondary antibodies. Signal was detected with chemilumensnce. Following exposure, x-ray films were scanned and the amount of expression compared to that of tubulin as an internal control using Scion Image software. FIG. 4 (A) describes R-Smad expression. FIG. 4 (B) described I-Smad expression.
(§3) Western Blot Analysis: A portion of the snap frozen graft containing both cortex and medulla was ground with a mortar and pestle. For each 100 mg of tissue, the sample was resuspened in 400 ul of lysis buffer (10 mM Tris base, 150 mM NaCl, pH 8.0) containing protease inhibitors (P2714 1:1000. Sigma Chemical Co., St. Louis, Mo.) and homogenized (PowerGen 125, 1 minute). Triton X100 was then added to 1% and the sample place on ice, for 30 minutes. The solubilized sample was then spun at 4° C. for 15 minutes at 15,000×G. The supernatant was collected and stored at −80° C. Sample protein concentrations were determined using the Micro BCA assay (Pierce Chemical Co., Rockford, Ill.) according to manufacturer=s instructions, except that the assay was performed in half area plates combining 35 μl sample with 70 µl of reagent. […]

Smad 6 protein = assay: Western blot of renal graft lysates, Smad 6 protein; assay type: in vivo, rat; details: allograft recipients vs allogeneic untreated control group
From the text: as §2, §3

MMP 9 mRNA = assay: Semi-quantitative RT-PCR of renal grafts, MMP 9 mRNA; assay type: in vivo, rat; details: all groups vs syngeneic untreated controls, regardless of treatment
Method: FIG. 5 is a set of graphs showing that 1,25-(OH)2D3 Treatment Alters MMP and TIMP Expression . […] S26 was used as the housekeeping gene. […]
as §1

TIMP 1 mRNA = assay: Semi-quantitative RT-PCR of renal grafts, TIMP 1 mRNA; assay type: in vivo, rat; details: all groups vs untreated allograft recipients, regardless of treatment
Method: FIG. 5 is a set of graphs showing that 1,25-(OH)2D3 Treatment Alters MMP and TIMP Expression . […] S26 was used as the housekeeping gene. […] Fold changes are expressed relative to the allogeneic untreated control.
as §1

## C=C1/C(=C\C=C2/CCC[C@]3(C)[C@@H]([C@H](C)CCCC(C)(C)O)CC[C@@H]23)C[C@@H](O)C[C@@H]1O [calcitriol, 1,25-dihydroxyvitamin D3]
[1]; combined analysis of all Group 1 and Group 2 patients
  Effect on CsA or FK506 dosages or serum drug levels: no significant effect
[1]; seven of the 26 Group 1 patients with serial CsA levels
  Trends in mean CsA levels or variability in CsA levels: No trends
Smad 6 mRNA; allogeneic grafts, vs untreated allogeneic grafts (1,25-(OH)2D3 p=0.02)
  Smad 6 mRNA expression: significantly increased
Smad 6 mRNA; syngeneic grafts, vs untreated allogeneic grafts, p=0.001
  Smad 6 mRNA expression: significantly increased
Smad 3 protein
  Smad 3 protein levels: similar
Smad 6 protein
  Smad 6 protein expression: decreased
MMP 9 mRNA
  MMP 9 mRNA: increased
TIMP 1 mRNA
  TIMP 1 mRNA expression: decreased
